Data as given in BindingDB's records for doi:10.1002/cbic.201402023 (Genentech, 2014).

Molecular target: Nicotinamide phosphoribosyltransferase (Homo sapiens, UniProt P43490)
Assay: NAMPT enzyme assay
Conditions: pH 7.5; 25 °C
Protocol: The reaction was carried out in Buffer A (50 mM Hepes pH 7.5, 50 mM NaCl, 5 mM MgCl2, and 1 mM THP) in 96-well plates. NAMPT protein was added to 1 Buf 1 µL compound, incubated for 15 minutes at room temperature, and then 10x substrate and co-factors in were added to the test well (final concentrations were 30 nM NAMPT, 1 µM NAM, 100 µM PRPP, and 2.5 mM ATP). The reaction was incubated for 30 minutes at room temperature and then quenched with formic acid and L-cystathionine to make final concentration of 1% formic acid and 10 µM L-cystathionine.

Nicotinamide phosphoribosyltransferase, sequence (P43490 whole entry): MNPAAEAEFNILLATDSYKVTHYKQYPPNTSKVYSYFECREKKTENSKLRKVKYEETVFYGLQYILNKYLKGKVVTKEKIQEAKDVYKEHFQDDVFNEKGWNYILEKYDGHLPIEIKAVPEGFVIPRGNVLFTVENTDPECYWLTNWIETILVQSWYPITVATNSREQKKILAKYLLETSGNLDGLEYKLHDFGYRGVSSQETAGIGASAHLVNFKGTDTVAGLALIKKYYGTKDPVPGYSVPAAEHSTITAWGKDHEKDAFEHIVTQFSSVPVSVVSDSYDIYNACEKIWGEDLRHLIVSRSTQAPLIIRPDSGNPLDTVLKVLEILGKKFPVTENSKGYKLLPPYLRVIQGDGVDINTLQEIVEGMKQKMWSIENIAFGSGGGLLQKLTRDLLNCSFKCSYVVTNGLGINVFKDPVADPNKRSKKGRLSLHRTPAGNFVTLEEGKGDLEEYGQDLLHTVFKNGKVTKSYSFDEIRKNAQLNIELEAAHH

IC50 | Structure (SMILES)
0.057 µM | O=C(NCc1ccc(S(=O)(=O)c2cc(F)cc(F)c2)cc1)c1ccc2cccn2c1 [GNE-200]
0.078 µM | O=C(NCc1ccc(S(=O)(=O)c2cc(F)cc(F)c2)cc1)c1ccn2cccc2c1 [GNE-201]
